Results from patent publication US20240124529A1, “ANTIVIRAL […]-[…]-CoV-2 PEPTIDES AND USES THEREOF” (Dana-Farber Cancer Institute, Inc., priority 2020, published 2024).
Bridge positions count the residues as written; N and C are the ends. Square brackets hold non-standard residues; d marks the D form. Peptide text beside a SMILES is read from it. S5 = C=CCCC[C@](C)(N)C(=O)O; Nle = CCCC[C@H](N)C(=O)O

Columns and labels:
Proteinase K = Proteinase K (Parengyodontium album, UniProt P06873); assay: in vitro; conditions: pH 7.4
[1] = type: physicochemical; conditions: 25-50 μM peptide in 50 mM potassium phosphate (pH 7.5) or water

Sequence of Proteinase K (P06873 106-384): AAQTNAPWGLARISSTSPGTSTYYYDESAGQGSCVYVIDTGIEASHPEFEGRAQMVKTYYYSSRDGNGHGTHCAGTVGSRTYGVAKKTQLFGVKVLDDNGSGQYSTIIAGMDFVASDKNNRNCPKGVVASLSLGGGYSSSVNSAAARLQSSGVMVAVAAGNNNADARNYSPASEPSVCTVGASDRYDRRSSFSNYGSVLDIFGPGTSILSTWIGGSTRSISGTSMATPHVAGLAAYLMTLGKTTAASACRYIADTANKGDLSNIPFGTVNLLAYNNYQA

| Compound | half-life (Proteinase K) [min] | IC50 (SARS-CoV-2) [µM] | alpha-helical structure in solution by circular dichroism [1] |
| --- | --- | --- | --- |
| CC[C@H](C)[C@H](NC(C)=O)C(=O)N[C@@H](CCC(N)=O)C(=O)N[C@@H](CCCCN)C(=O)N[C@@H](CCC(=O)O)C(=O)N[C@H](C(=O)N[C@@H](CC(=O)O)C(=O)N[C@@H](CCCNC(=N)N)C(=O)N[C@@H](CC(C)C)C(=O)N[C@@H](CC(N)=O)C(=O)N[C@@H](CCC(=O)O)C(=O)N[C@H](C(=O)N[C@@H](C)C(=O)N[C@@H](CCCCN)C(=O)N[C@@H](CC(N)=O)C(=O)N[C@@H](CC(C)C)C(=O)N[C@@H](CC(N)=O)C(=O)N[C@@H](CCC(=O)O)C(=O)N[C@@H](CO)C(=O)N[C@@H](CC(C)C)C(N)=O)C(C)C)[C@@H](C)CC [SEQ ID NO:10, reference compound] | 35 | – | – |
| CC[C@H](C)[C@H](NC(C)=O)C(=O)N[C@@H](CCC(N)=O)C(=O)N[C@@]1(C)CCCC=CCCC[C@@](C)(C(=O)N[C@@H](CC(C)C)C(=O)N[C@@H](CC(N)=O)C(=O)N[C@@H](CCC(=O)O)C(=O)N[C@H](C(=O)N[C@@H](C)C(=O)N[C@@H](CCCCN)C(=O)N[C@@]2(C)CCCC=CCCC[C@@](C)(C(=O)N[C@@H](CC(C)C)C(N)=O)NC(=O)[C@H](CCC(=O)O)NC(=O)[C@H](CC(N)=O)NC(=O)[C@H](CC(C)C)NC2=O)C(C)C)NC(=O)[C@H](CC(=O)O)NC(=O)[C@H]([C@@H](C)CC)NC(=O)[C@H](CCC(=O)O)NC1=O [SEQ ID NO:52, IQX1EIDX2LNEVAKX3LNEX4L] (Ac-IQ[S5]EID[S5]LNEVAK[S5]LNE[S5]L-NH2; staple 3-7, 14-18) | > 1000 | < 6 | – |
| CC[C@H](C)[C@H](NC(=O)[C@H](Cc1ccc(O)cc1)NC(=O)[C@H](CCC(N)=O)NC(=O)[C@H](CCC(=O)O)NC(=O)[C@H](Cc1ccc(O)cc1)NC(=O)[C@H](CCCCN)NC(=O)CNC(=O)[C@H](CC(C)C)NC(=O)[C@H](CCC(=O)O)NC(=O)[C@H](CCC(N)=O)NC(=O)[C@H](CC(C)C)NC(=O)[C@H](CC(=O)O)NC(=O)[C@@H](NC(=O)[C@H](CC(C)C)NC(=O)[C@H](CO)NC(=O)[C@]1(C)CCCC=CCCC[C@](C)(NC(=O)[C@H](C)NC(=O)[C@@H](NC(=O)[C@H](CCC(=O)O)NC(=O)[C@H](CC(N)=O)NC(=O)[C@H](CC(C)C)NC(=O)[C@]2(C)CCCC=CCCC[C@](C)(NC(=O)[C@H](CCC(N)=O)NC(=O)[C@@H](NC(=O)[C@H](CC(N)=O)NC(=O)[C@@H](NC(=O)[C@@H](NC(=O)[C@H](CO)NC(=O)[C@H](C)NC(=O)[C@H](CC(N)=O)NC(=O)[C@@H](NC(=O)CNC(=O)[C@H](CO)NC(=O)[C@@H](NC(C)=O)[C@@H](C)CC)[C@@H](C)CC)C(C)C)C(C)C)[C@@H](C)CC)C(=O)N[C@@H](CCC(=O)O)C(=O)N[C@@H]([C@@H](C)CC)C(=O)N[C@@H](CC(=O)O)C(=O)N2)C(C)C)C(=O)N[C@@H](CC(N)=O)C(=O)N[C@@H](CC(C)C)C(=O)N[C@@H](CC(N)=O)C(=O)N1)[C@@H](C)CC)C(N)=O [SEQ ID NO:158] | 33 | – | – |
| CCCC[C@@H]1NC(=O)[C@H](CCC(=O)O)NC(=O)[C@H](Cc2ccc(O)cc2)NC(=O)[C@@](C)(NC(=O)[C@H](CC(C)C)NC(=O)[C@H](CC(=O)O)NC(=O)[C@H](CC(C)C)NC(=O)[C@H](Cc2ccccc2)NC(=O)[C@@H](NC(=O)[C@@H](NC(=O)[C@H](CC(N)=O)NC(=O)[C@@H](NC(=O)[C@H](CCC(N)=O)NC(=O)[C@H](CC(=O)O)NC(=O)[C@H](CC(C)C)NC(=O)[C@H](CO)NC(C)=O)[C@@H](C)CC)C(C)C)[C@@H](C)O)CCCC=CCCC[C@@](C)(C(=O)N[C@@H](CCCCN)C(=O)N[C@@H](CC(C)C)C(=O)N[C@@H](CCC(=O)O)C(=O)N[C@@H](CCC(=O)O)C(=O)N[C@@H](C)C(=O)N[C@H](C(=O)N[C@@]2(C)CCCC=CCCC[C@@](C)(C(=O)N[C@@H](CO)C(=O)N[C@@H](Cc3ccc(O)cc3)C(=O)N[C@H](C(=O)N[C@@H](CC(=O)O)C(=O)N[C@@H](CC(C)C)C(=O)N[C@@H](CCCCN)C(=O)N[C@@H](CCC(=O)O)C(N)=O)[C@@H](C)CC)NC(=O)[C@H](CCC(=O)O)NC(=O)[C@H](CC(C)C)NC(=O)[C@H](CCCCN)NC2=O)[C@@H](C)CC)NC1=O [SEQ ID NO:177, SLDQINVTFLDLX1YEBX2KLEEAIX3KLEX4SYIDLKE] (Ac-SLDQINVTFLDL[S5]YE[Nle][S5]KLEEAI[S5]KLE[S5]SYIDLKE-NH2; staple 13-17, 24-28) | 840 | – | – |
| SLDQINVTFLDLEYEMKKLEEAIKKLEESYIDLKEL [SEQ ID NO:110, reference compound] | – | – | little to no alpha-helical structure |
